From US6924278B2, “Aroyl-piperazine derivatives, their preparation and their use as tachykinin antagonists” (Fujisawa Pharmaceutical Co., Ltd., priority 1997, dated 2005)
Counter-ions that a name gives are not always drawn.

Tests used:
[1] = target: T1, h-NK1 receptors (Homo sapiens, UniProt P25103); test: Evaluation of NK1 antagonist transport efficiency to the central nervous system using a h-NK1 receptor binding assay (brain extract after i.v. dosing of rats); settings: 5 min; compound extracted from brain of male SD rats 5 min after i.v. injection at the dose of 1 mg/kg; CHO cell membranes expressing h-NK1; read-out: inhibition rate of 125I-BH-Substance P binding to h-NK1 receptors
T1 construct: expressed in transfected cells; host or cells: CHO cells (permanent expression), crude cell membranes
Procedure: A. Evaluation of NK1 Antagonist Transport Efficiency to the Cental Nervous System using a h-NK1 Receptor Binding Assay
(1) Administration of Test Compound and Extraction of the Compound from Brain
Male SD rats were given an i.v. injection of a solution containing a test compound (1 mg/kg). 5 Min later the animals were anesthetized by ether, bled and perfused through the aorta ascendens with 20 ml of saline. The brain was rapidly removed, weighed and homogenized in 4 vol. ice-cold distilled water by using Polytoron (KINEMATICA). To extract the test compound, 500 μl of the homogenate, 100 μl of methanol, 500 μl of 0.1 N NaOH and 4 ml of ethyl acetate were mixed by shaking for 10 min at room temperature. The organic phase (2.5 ml) was recovered by centrifugation at 3,000 rpm for 10 min, dried and dissolved in dimethyl sulfoxide.
(2) h-NK1 Receptor Binding Assay
(a) Crude CHO Cell Membrane Preparation
CHO cells permanently expressing h-NK1 receptors were harvested and homogenized with a Dounce homogenizer at 4° C. in a buffer (0.25 M sucrose, 25 mM Tris-HCl (pH 7.4), 10 mM MgCl2, 1 mM EDTA, 5 μg/ml p-APMSF). The homogenate was centrifuged (500×g, 10 min), and the pellet was resuspended in the same buffer, homogenized, and centrifuged. The two supernatants were combined and centrifuged (100,000×g, 1 hour). The crude cell membranes thus isolated were resuspended in a buffer (25 mM Tris-HCl (pH 7.4), 10 mM MgCl2, 1 mM. EDTA, 5 μg/ml p-APMSF) and stored at −80° C. until use.
(b) ^125I-BH-Substance P Binding to the Prepared Membrane
Cell membranes (6 μg/ml) were incubated with ^125I-BH-Substance P (0.1 nM) with or without the extracted compounds in 0.25 ml of a medium (50 mM Tris-HCl (pH 7.4), 5 mM MnCl2, 20 μg/ml chymostatin, 40 μg/ml bacitracin, 4 μg/ml leupeptin, 5 μg/ml p-APMSF, 200 μg/ml BSA) at 22° C. for 90 min. At the end of the incubation period, the contents were quickly filtered through a Blue Mat 11740 filter (pretreated with 0.1% polyethylenimine for 3 hours prior to use) by using SKATRON Cell Harvester. The filter was then washed with a washing buffer (50 mM Tris-HCl (pH 7.4), 5 mM MnCl2). The radioactivity was counted by using an auto gamma counter (Packard RIASTAR 5420A). All data presented are specific binding defined as that displaceable by 3 μM unlabeled Substance P.

T1 sequence (P25103 whole entry): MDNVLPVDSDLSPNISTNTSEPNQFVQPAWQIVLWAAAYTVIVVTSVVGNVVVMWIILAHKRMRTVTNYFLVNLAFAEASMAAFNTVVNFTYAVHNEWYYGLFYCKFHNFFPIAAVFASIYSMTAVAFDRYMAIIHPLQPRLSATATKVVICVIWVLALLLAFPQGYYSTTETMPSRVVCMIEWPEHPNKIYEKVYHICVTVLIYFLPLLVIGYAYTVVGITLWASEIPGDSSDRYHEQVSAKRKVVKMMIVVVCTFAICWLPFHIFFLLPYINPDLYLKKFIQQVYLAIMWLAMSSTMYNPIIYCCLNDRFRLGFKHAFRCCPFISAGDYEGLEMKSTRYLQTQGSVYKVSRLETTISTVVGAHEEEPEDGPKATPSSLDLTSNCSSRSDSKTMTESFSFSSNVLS

Row | melting point | inhibition at 1 mg/kg [1] [%] | Structure (SMILES)
1 | 180 to 190 °C |  | Cl.Cl.O=C(c1cc(C(F)(F)F)cc(C(F)(F)F)c1)N1CCN(CC#Cc2cccnc2)C[C@H]1Cc1c[nH]c2ccccc12
2 | 140 to 150 °C |  | Cl.Cl.O=C(c1cc(C(F)(F)F)cc(C(F)(F)F)c1)N1CCN(CC#Cc2cccnc2)C[C@H]1Cc1ccc2ccccc2c1
3 | 130 to 150 °C |  | Cl.Cl.O=C(c1cc(C(F)(F)F)cc(C(F)(F)F)c1)N1CCN(C/C=C\c2cccnc2)C[C@H]1Cc1ccc2ccccc2c1
4 | 138 to 148 °C |  | Cl.Cl.O=C(c1cc(C(F)(F)F)cc(C(F)(F)F)c1)N1CCN(CCCc2cccnc2)C[C@H]1Cc1ccc2ccccc2c1
5 | 160 to 170 °C |  | COc1ccc(C#CCN2CCN(C(=O)c3cc(C(F)(F)F)cc(C(F)(F)F)c3)[C@H](Cc3ccc(C)c(C)c3)C2)cn1.Cl.Cl
6 | 183 to 189 °C |  | COc1ccc(C#CCN2CCN(C(=O)c3cc(C(F)(F)F)cc(C(F)(F)F)c3)[C@H](Cc3c[nH]c4ccccc34)C2)cn1.Cl.Cl
7 | 120 to 130 °C |  | Cc1ccc(C[C@@H]2CN(CCCc3ccccn3)CCN2C(=O)c2cc(C(F)(F)F)cc(C(F)(F)F)c2)cc1C.Cl.Cl
8 | 150 to 160 °C |  | Cl.Cl.O=C(c1cc(C(F)(F)F)cc(C(F)(F)F)c1)N1CCN(CCCc2cccnc2)C[C@H]1Cc1c[nH]c2ccccc12
9 | 140 to 145 °C |  | Cl.Cl.O=C(c1cc(C(F)(F)F)cc(C(F)(F)F)c1)N1CCN(CCCCc2cccnc2)C[C@H]1Cc1c[nH]c2ccccc12
10 | 162 to 167 °C |  | COc1ccncc1C#CCN1CCN(C(=O)c2cc(C(F)(F)F)cc(C(F)(F)F)c2)[C@H](Cc2c[nH]c3ccccc23)C1.Cl.Cl
11 | 150 to 153 °C |  | COc1ccncc1C#CCN1CCN(C(=O)c2cc(C(F)(F)F)cc(C(F)(F)F)c2)[C@H](Cc2ccc(C)c(C)c2)C1.Cl.Cl
12 | 165 to 170 °C |  | COc1ccncc1CCCN1CCN(C(=O)c2cc(C(F)(F)F)cc(C(F)(F)F)c2)[C@H](Cc2c[nH]c3ccccc23)C1.Cl.Cl
13 | 159 to 168 °C |  | COc1ccncc1CCCN1CCN(C(=O)c2cc(C(F)(F)F)cc(C(F)(F)F)c2)[C@H](Cc2ccc(C)c(C)c2)C1.Cl.Cl
14 | 190 to 195 °C |  | Cl.Cl.Nc1ccc(C#CCN2CCN(C(=O)c3cc(C(F)(F)F)cc(C(F)(F)F)c3)[C@H](Cc3c[nH]c4ccccc34)C2)cn1
15 | 183 to 189 °C |  | Cc1ccc(C[C@@H]2CN(CC#Cc3ccc(N)nc3)CCN2C(=O)c2cc(C(F)(F)F)cc(C(F)(F)F)c2)cc1C.Cl.Cl
16 | 170 to 174 °C |  | Cc1ccc(C[C@@H]2CN(C/C=C\c3cccnc3)CCN2C(=O)c2cc(C(F)(F)F)cc(C(F)(F)F)c2)cc1C.Cl.Cl
17 | 195 to 200 °C |  | COc1ccc(CCCN2CCN(C(=O)c3cc(C(F)(F)F)cc(C(F)(F)F)c3)[C@H](Cc3c[nH]c4ccccc34)C2)cn1.Cl.Cl
18 | 160 to 166 °C |  | Cl.Cl.O=C(c1cc(C(F)(F)F)cc(C(F)(F)F)c1)N1CCN(CC#Cc2ccccn2)C[C@H]1Cc1c[nH]c2ccccc12
19 | 175 to 185 °C |  | Cl.Cl.O=C(c1cc(C(F)(F)F)cc(C(F)(F)F)c1)N1CCN(CCC#Cc2cccnc2)C[C@H]1Cc1c[nH]c2ccccc12

More lines, now with the values behind:

Row | Structure (SMILES) | melting point | inhibition at 1 mg/kg [1] [%]
20 | Cc1ccc(C[C@@H]2CN(CC#CCN3CCSCC3)CCN2C(=O)c2cc(Cl)cc(Cl)c2)cc1C.Cl.Cl | 128 °C (dec.) | 
21 | Cl.Cl.O=C(c1cc(Cl)cc(Cl)c1)N1CCN(CC#CCN2CCSCC2)C[C@H]1Cc1c[nH]c2ccccc12 | 175 °C (dec.) | 
22 | Cl.Cl.O=C(c1cc(Cl)cc(Cl)c1)N1CCN(CC#CCN2CCOCC2)C[C@H]1Cc1c[nH]c2ccccc12 | 165 °C (dec.) | 
23 | Cl.Cl.O=C(c1cc(Cl)cc(Cl)c1)N1CCN(CC#CCN2CCOCC2)C[C@H]1Cc1ccc2ccccc2c1 | 171 °C (dec.) | 
24 | Cl.Cl.O=C(c1cc(Cl)cc(Cl)c1)N1CCN(CC#CCN2CCSCC2)C[C@H]1Cc1ccc(C(F)(F)F)cc1 | 172 °C (dec.) | 
25 | Cl.Cl.O=C(c1cc(Cl)cc(Cl)c1)N1CCN(CC#CCN2CCOCC2)C[C@H]1Cc1ccc(C(F)(F)F)cc1 | 186 °C (dec.) | 
26 | Cc1ccc(C[C@@H]2CN(CC#CCN3CCOC[C@@H]3CC(C)C)CCN2C(=O)c2cc(C(F)(F)F)cc(C(F)(F)F)c2)cc1C.Cl.Cl | 125 to 138 °C | 
27 | COc1ccc(CCCN2CCN(C(=O)c3cc(C(F)(F)F)cc(C(F)(F)F)c3)[C@H](Cc3ccc(C)c(C)c3)C2)cn1.Cl.Cl | 127 to 137 °C | 
28 | Cl.Cl.O=C(c1cc(C(F)(F)F)cc(C(F)(F)F)c1)N1CCN(CCCCc2ccccn2)C[C@H]1Cc1c[nH]c2ccccc12 | 155 to 160 °C | 
29 | Cc1ccc(C[C@@H]2CN(CCCn3cccn3)CCN2C(=O)c2cc(C(F)(F)F)cc(C(F)(F)F)c2)cc1C.Cl | 73 to 75 °C | 
30 | CCOC[C@H]1COCCN1CC#CCN1CCN(C(=O)c2cc(C(F)(F)F)cc(C(F)(F)F)c2)[C@H](Cc2ccc(C)c(C)c2)C1.Cl.Cl | 155 to 160 °C | 
31 | Cc1ccc(C[C@@H]2CN(CC#CCN3CCOC[C@@H]3CO)CCN2C(=O)c2cc(C(F)(F)F)cc(C(F)(F)F)c2)cc1C.Cl.Cl | 130 to 150 °C | 
32 | COC[C@@H]1COCCN1C/C=C/CN1CCN(C(=O)c2cc(C(F)(F)F)cc(C(F)(F)F)c2)[C@H](Cc2ccc(C)c(C)c2)C1.Cl.Cl | 240 to 250 °C | 
33 | Cc1ccc(C[C@@H]2CN(CC#CCN3CCOC[C@H]3C(=O)N(C)C)CCN2C(=O)c2cc(C(F)(F)F)cc(C(F)(F)F)c2)cc1C.Cl.Cl | 150 to 160 °C | 
34 | CC[C@@H]1COCCN1CC#CCN1CCN(C(=O)c2cc(C(F)(F)F)cc(C(F)(F)F)c2)[C@H](Cc2c[nH]c3ccccc23)C1.Cl.Cl | 176 to 180 °C | 
35 | COC[C@H]1CCCN1CC#CCN1CCN(C(=O)c2cc(C(F)(F)F)cc(C(F)(F)F)c2)[C@H](Cc2c[nH]c3ccccc23)C1.Cl.Cl | 190 to 195 °C | 
36 | COC[C@@H]1COCCN1CCCN1CCN(C(=O)c2cc(C(F)(F)F)cc(C(F)(F)F)c2)[C@H](Cc2ccc(C)c(C)c2)C1.Cl.Cl | 80 to 100 °C | 
37 | COCC1CN(CCN2CCN(C(=O)c3cc(C(F)(F)F)cc(C(F)(F)F)c3)[C@H](Cc3ccc(C)c(C)c3)C2)CCO1.Cl.Cl (stereo partly shown) | 150 to 154 °C | 
38 | COC[C@H]1COCCN1CCN1CCN(C(=O)c2cc(C(F)(F)F)cc(C(F)(F)F)c2)[C@H](Cc2c[nH]c3ccccc23)C1.Cl.Cl | 175 to 185 °C | 
39 | COC[C@@H]1COCCN1CCN1CCN(C(=O)c2cc(C(F)(F)F)cc(C(F)(F)F)c2)[C@H](Cc2c[nH]c3ccccc23)C1.Cl.Cl | 130 to 150 °C | 
40 | C[C@H]1COC[C@H](C)N1CCN1CCN(C(=O)c2cc(C(F)(F)F)cc(C(F)(F)F)c2)[C@H](Cc2c[nH]c3ccccc23)C1.Cl.Cl | 170 to 180 °C | 
41 | COc1cccc(CC2CN(CC#CCN3CCOCC3(C)C)CCN2C(=O)c2cc(C(F)(F)F)cc(C(F)(F)F)c2)c1OC.Cl.Cl (stereo not shown) | 170 °C | 
42 | CNc1cc(C(=O)N2CCN(CC#CCN3CCOCC3(C)C)C[C@H]2Cc2c[nH]c3ccccc23)cc(C(F)(F)F)c1.Cl.Cl | 215 to 230 °C | 
43 | CN(C)c1cccc(CC2CN(CC#CCN3CCOCC3(C)C)CCN2C(=O)c2cc(C(F)(F)F)cc(C(F)(F)F)c2)c1.Cl.Cl.Cl (stereo not shown) | 205 to 210 °C | 
44 | CNc1cccc(CC2CN(CC#CCN3CCOCC3(C)C)CCN2C(=O)c2cc(C(F)(F)F)cc(C(F)(F)F)c2)c1 (stereo not shown) (as salt: hydrochloride) [Example 93, 1-[3,5-Bis(trifluoromethyl)benzoyl]-4-[4-(3,3-dimethylmorpholino)-2-butynyl]-2-[3-(N-methylamino)benzyl]piperazine] | 192 to 195 °C | 
45 | Cc1ccc(C[C@@H]2CN(CC#CCN3CCOC[C@@H]3CF)CCN2C(=O)c2cc(C(F)(F)F)cc(C(F)(F)F)c2)cc1C [70-(1), (2R)-1-[3,5-Bis(trifluoromethyl)benzoyl]-2-(3,4-dimethylbenzyl)-4-[4-((3R)-3-fluoromethylmorpholino)-2-butynyl]piperazine dihydrochloride] |  | > 80
46 | Cc1ccc(C[C@@H]2CN(Cc3cnn(CC(=O)O)c3)CCN2C(=O)c2cc(C(F)(F)F)cc(C(F)(F)F)c2)cc1C [Example 47, (2R)-1-[3,5-bis(trifluoromethyl)benzoyl]-4-[[1-(carboxymethyl)-1H-pyrazol-4-yl]methyl]-2-(3,4-dimethylbenzyl)piperazine] | 223 to 230 °C | 
